Where “and” joins values, the source holds several entries; their conditions need not be identical. Identical values can stand only once. Like-named read-outs stand apart in the source and are kept apart here.
What was measured:
[1] = Fluorescein (CF) leakage from SUVs; details: for threshold concentration of fast leakage increase, PC/PG SUVs: end of the low leakage induction range; for concentration for 20% leakage, PC/Chol. vesicles / concentration for 20% leakage, PC/PG vesicles / concentration for 100% leakage, PC/Chol. vesicles / concentration for 100% leakage, PC/PG vesicles / concentration for minimal leakage, PC/Chol. vesicles / concentration for minimal leakage, PC/PG vesicles / EC50: CF-SUVs 0.25 mg/mL in TBS pH 7.2, fluorescence ex 480/em 520 nm, read from Figure 5
Method: Lipid SUVs with single or multiple components were used to model different biomembranes. In this work, two lipid mixtures with different surface charges were used to mimic bacterial inner membranes with the molar ratio of POPC/POPG of 7:3 and mammalian cytoplasmic cell membranes with a molar ratio of POPC/cholesterol of 1:1. Lipids (or cholesterol) were dissolved and mixed in chloroform, and then, the solvent was removed via evaporation and lyophilization. Dry lipids were dissolved in Tris buffered saline (TBS, containing 10 mM Tris-HCl and 154 mM NaCl, with a final pH of 7.2) and were fully dispersed via sonication. After five freeze/thaw loops of the lipid solution, SUVs were prepared by extruding 31 times using an Avanti Polar Lipids mini extruder. SUV solutions were diluted to 0.5 mg/ml for further use.
Concentration effects of the binding of amphiphiles to lipid SUVs were examined by means of fluorescein leakage. 5(6)-Carboxyfluorescein (CF)-entrapped SUVs (CF-SUVs) were prepared as described previously,[26] except that dried lipids were dissolved into 40 mM TBS solution of CF before the freeze/thaw loop. After extrusion, CF-SUVs were separated from unentrapped fluorescein molecules using a Sephadex G50 chromatography column. Amphiphile solutions of various concentrations were then blended in a 1:1 ratio with CF-SUVs, giving a mixture of amphiphiles of the desired concentration and CF-SUVs of concentration 0.25 mg/mL. A Thermo Scientific Varioskan LUX was employed to determine the amount of released CF in each sample by measuring their emission intensity I520, with an excitation wavelength of 480 nm and an emission wavelength of 520 nm. CF-SUVs alone and with added 0.2% Triton-X were measured as positive and negative controls (I+ and I–), respectively. The percentage of leakage L for each sample was calculated using Ln = (In,520 – I+)/(I– – I+) × 100%.

S. aureus (ATCC 6538) = format: cell-based, Staphylococcus aureus; details: for MIC/CAC, converted data, S. aureus: MIC divided by the amphiphile's CAC; for MIC, S. aureus: microdilution, serial half-dilution in PBS, Mueller Hinton broth, 37 °C, 24 h, 10^6 CFU/mL, by eye and OD600, ± SD, at least three replicates
Method: (§1) E. coli (ATCC 25922), S. aureus (ATCC 6538), and C. albicans SC5314 (ATCC MYA-2876) were purchased from the American Type Culture Collection (ATCC). The two bacterial strains, E. coli and S. aureus, were cultured in Mueller Hinton broth at 37 °C; while the yeast strain, C. albicans, was grown in RPMI 1640 medium at 30 °C. The microdilution method was employed to determine MICs of the amphiphiles against the microorganism strains listed above.[21] Solutions of lipopeptides and biocides were half-diluted serially in 96-well plates using PBS buffer containing 137 mM NaCl, 2.7 mM KCl, 8.1 mM Na2HPO4, and 1.9 mM KH2PO4 for E. coli and S. aureus and using RPMI 1640 for C. albicans. Overnight incubations of the strains, in each respective growth medium, were then inoculated into each well, giving final concentrations of 10^6 CFU/mL for E. coli and S. aureus and 10^5 CFU/mL for C. albicans. Culture media without microorganisms and amphiphiles were employed as positive controls, while fresh microorganism cultures without amphiphiles were used as negative controls. Each plate has both positive controls and negative controls. The plates were then incubated at an appropriate temperature (stated above) for 24 h for the bacterial strains and 48 h for the yeast strain. MICs of each sample were first determined by eye. A more quantitative analysis was carried out by measuring optical densities at 600 nm (OD600) of each well using a Sunrise absorbance microplate reader (Tecan Group Ltd.). Inhibitory ratios (IRs) of each sample at a given concentration against a specific strain, denoted as IRi, were calculated by IRi = (OD600,negative control – OD600,i)/(OD600,negative control – OD600,positive control) × 100%. All experiments were repeated at least three times with each group containing three replicates. To better analyze concentration–IR relationships, sigmoidal function fittings were employed to generate the best fitted dose response curve for each situation.

[2] = previous findings by Lu et al.; cited from earlier work
Excerpt: From the best fitted surface tension parameters (listed in Table S2), the area per molecule (APM) could be calculated from eq 4 for each amphiphile at its respective CAC. […] This is in line with the previous findings by Lu et al., which stated that APMs of C10TAB, C12TAB, C14TAB, C16TAB, and C18TAB adsorbed on the surface of water were 55 ± 3, 50 ± 2, 48 ± 3, 43 ± 3, and 43 ± 3 Å^2, respectively.[29]−[33] Each lipopeptide molecule occupied around 79 ± 10 Å^2 at ...

[3] = test system: C. albicans SC5314 (ATCC MYA-2876); format: cell-based, Candida albicans; details: for MIC/CAC, converted data, C. albicans: MIC divided by the amphiphile's CAC; for MIC, C. albicans: microdilution in RPMI 1640, 30 °C, 48 h, 10^5 CFU/mL, by eye and OD600, ± SD, at least three replicates
Method: as §1

[4] = test system: NIH 3T3 fibroblasts cells (3T3 cells, ATCC-1658); format: cell-based; details: MTT assay, 24 h exposure, 37 °C, absorbance 570 nm, sigmoidal fit; ± SD, at least three replicates; read-out: EC50, NIH/3T3
Method: (§2) Human dermal fibroblasts cells (adult, HDFa cells) and NIH 3T3 fibroblasts cells (3T3 cells, ATCC-1658) were cultured at 37 °C in Dulbecco’s modified Eagle medium (ATCC30-2002, added with 10% heat-inactivated fetal bovine serum) with a continuous supply of CO2 at a 5% level. MTT assays were carried out to examine in vitro cytotoxicity of the amphiphiles.[22] Cells were first inoculated in flat-bottom 96-well plates, rendering 8 × 10^3 cells in 100 μL of medium for each well, and were incubated for 24 h. The cells were mixed with 100 μL of a solution of an amphiphile with 2 times the selected concentrations. Cells were then exposed to the solutions of each amphiphile for 24 h, after which 10 μL of 5 mg/mL MTT solution was added into each well, and the reaction was allowed for 2 h. 200 μL of dimethyl sulfoxide was then added to each well to dissolve the transformed MTT formazan. Light absorbance of the samples was measured using a Thermo Scientific Varioskan LUX at 570 nm. Cell samples 100% viable and 100% dead were employed as the positive control and negative control, respectively. Dose response curves were obtained by applying sigmoidal function fittings to obtain 50% effective concentrations (EC50).

[5] = test system: Human dermal fibroblasts cells (adult, HDFa cells); format: cell-based; details: MTT assay, 24 h exposure, 37 °C, absorbance 570 nm, sigmoidal fit; ± SD, at least three replicates; read-out: EC50, HDFa
Method: as §2

[6] = read-out: concentration for 50% leakage, PC/Chol. vesicles
[7] = read-out: concentration for 50% leakage, PC/PG vesicles

## CCCCCCCCCCCC[N+](C)(C)C.[Br-] [C12TAB, dodecyltrimethylammonium bromide]
[1]; CF leakage, end of the low leakage induction period
  concentration above which fast leakage was induced, PC/chol SUVs: ~70 µM
[1]; CF leakage
  threshold concentration of fast leakage increase, PC/PG SUVs: 75 µM
[1]
  concentration for 20% leakage, PC/Chol. vesicles: 500 µM
  concentration for 20% leakage, PC/PG vesicles: 125 µM
  concentration for 100% leakage, PC/Chol. vesicles: >2000 µM
  concentration for 100% leakage, PC/PG vesicles: above 1000 μM and 1000 μM
  concentration for minimal leakage, PC/Chol. vesicles: 10 µM
  concentration for minimal leakage, PC/PG vesicles: around 16 μM and 75 μM
[1]; [6]
  EC50: 2000 µM
[1]; [7]
  EC50: 256 µM
[1]; at 256 μM
  leakage, PC/PG SUVs: 60%
[1]; from 16 to 75 μM
  leakage, PC/PG SUVs: less than 10%
S. aureus (ATCC 6538)
  MIC/CAC, converted data, S. aureus: 0.03 ± 0.01
  MIC, S. aureus: 25 ± 7 µM
[2]
  APM adsorbed on the surface of water: 50 ± 2 Å^2
[3]
  MIC/CAC, converted data, C. albicans: 0.10 ± 0.03
  MIC, C. albicans: 100 ± 30 µM
[4]
  EC50: 12 ± 4 µM
[5]
  EC50: 17 ± 5 µM

## CCCCCCCCCCCCCC[N+](C)(C)C.[Br-] [C14TAB, tetradecyltrimethylammonium bromide]
[1]; CF leakage
  threshold concentration of fast leakage increase, PC/PG SUVs: 16 µM
[1]
  concentration for 20% leakage, PC/Chol. vesicles: 10 µM
  concentration for 20% leakage, PC/PG vesicles: 30 µM
  concentration for 100% leakage, PC/Chol. vesicles: >500 µM
  concentration for 100% leakage, PC/PG vesicles: 500 µM
  concentration for minimal leakage, PC/Chol. vesicles: around 4 μM
  concentration for minimal leakage, PC/PG vesicles: 4 µM
[1]; [6]
  EC50: 100 µM
[1]; [7]
  EC50: 50 µM
[1]; at 100 μM and above
  maximum leakage, PC/chol SUVs: 50%
S. aureus (ATCC 6538)
  MIC/CAC, converted data, S. aureus: 0.06 ± 0.04
  MIC, S. aureus: 6 ± 4 µM
[2]
  APM adsorbed on the surface of water: 48 ± 3 Å^2
[3]
  MIC/CAC, converted data, C. albicans: 0.12 ± 0.02
  MIC, C. albicans: 12 ± 2 µM
[4]
  EC50: 3 ± 1 µM
[5]
  EC50: 7 ± 3 µM

Source: paper PMC9161444, “In-Membrane Nanostructuring of Cationic Amphiphiles Affects Their Antimicrobial Efficacy and Cytotoxicity: A Comparison Study between a De Novo Antimicrobial Lipopeptide and Traditional Biocides” (Langmuir, 2022)
